In patent publication US10376476B2, “Panicein compounds, compositions and uses thereof” (CENTRE NATIONAL DE LA RECHERCHE SCIENTIFIQUE, priority 2014, dated 2019):

Molecular target: T1, human Patched (hPtc) expressed in S. cerevisiae (Homo sapiens, UniProt Q13635)
T1 construct: MAP; expressed in transfected cells; host or cells: Saccharomyces cerevisiae K699
T1 sequence (Q13635 1-1447): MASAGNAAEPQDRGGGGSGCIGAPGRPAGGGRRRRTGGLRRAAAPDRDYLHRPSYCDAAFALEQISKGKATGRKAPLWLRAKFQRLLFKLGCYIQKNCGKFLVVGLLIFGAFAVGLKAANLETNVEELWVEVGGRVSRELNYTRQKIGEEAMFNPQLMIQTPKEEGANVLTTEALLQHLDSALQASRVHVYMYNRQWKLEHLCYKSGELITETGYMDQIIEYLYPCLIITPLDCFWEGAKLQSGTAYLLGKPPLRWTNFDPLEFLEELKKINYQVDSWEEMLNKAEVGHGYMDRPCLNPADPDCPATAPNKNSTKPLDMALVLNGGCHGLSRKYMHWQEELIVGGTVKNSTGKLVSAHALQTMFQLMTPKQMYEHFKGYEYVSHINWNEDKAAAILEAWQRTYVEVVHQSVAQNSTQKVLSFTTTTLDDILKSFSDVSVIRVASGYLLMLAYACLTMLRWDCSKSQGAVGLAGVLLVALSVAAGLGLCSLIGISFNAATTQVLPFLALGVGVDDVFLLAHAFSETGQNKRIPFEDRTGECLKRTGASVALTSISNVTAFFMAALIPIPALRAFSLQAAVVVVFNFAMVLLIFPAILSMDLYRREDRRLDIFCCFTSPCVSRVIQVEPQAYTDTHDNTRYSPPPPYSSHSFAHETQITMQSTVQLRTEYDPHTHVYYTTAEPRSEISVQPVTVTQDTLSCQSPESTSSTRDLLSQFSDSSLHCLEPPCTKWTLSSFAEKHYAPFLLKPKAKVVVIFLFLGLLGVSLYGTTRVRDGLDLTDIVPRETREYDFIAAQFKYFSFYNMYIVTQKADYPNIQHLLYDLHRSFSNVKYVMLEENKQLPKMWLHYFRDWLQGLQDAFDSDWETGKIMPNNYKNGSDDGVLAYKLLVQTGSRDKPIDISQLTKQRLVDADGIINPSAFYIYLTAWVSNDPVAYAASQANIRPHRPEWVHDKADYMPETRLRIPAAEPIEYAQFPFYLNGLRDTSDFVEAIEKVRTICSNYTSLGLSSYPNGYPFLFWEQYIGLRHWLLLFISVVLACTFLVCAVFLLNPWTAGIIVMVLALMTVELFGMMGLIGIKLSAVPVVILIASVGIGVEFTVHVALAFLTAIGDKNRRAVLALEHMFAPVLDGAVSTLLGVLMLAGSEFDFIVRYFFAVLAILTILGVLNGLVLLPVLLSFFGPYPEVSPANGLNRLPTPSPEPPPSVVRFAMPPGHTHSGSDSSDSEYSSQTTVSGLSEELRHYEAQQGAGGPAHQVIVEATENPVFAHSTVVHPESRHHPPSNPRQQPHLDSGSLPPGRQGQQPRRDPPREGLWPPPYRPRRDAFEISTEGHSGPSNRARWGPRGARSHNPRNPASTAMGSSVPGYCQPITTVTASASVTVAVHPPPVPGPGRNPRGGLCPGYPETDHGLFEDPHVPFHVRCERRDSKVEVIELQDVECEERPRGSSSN
Experiment: Screening test 1: resistance of Patched-expressing yeast to doxorubicin (yeast growth, absorbance 600 nm)
Assay type: cell-based
Details: 10 μg/mL fraction or purified compound, 10 μM doxorubicin
Experimental: A. Haliclona mucosa sponge. B. Haliclona mucosa methanolic fraction contains inhibitors of the resistance of Patched-expressing yeasts to doxorubicin. Yeast S. cerevisiae expressing hPtc were grown in 96 well plates in the presence of 10 μg/mL of the methanolic fraction of Haliclona mucosa crude extract dissolved in DMSO and in presence or not of 10 μM of doxorubicin (dxr). The growth of yeasts was measured by absorbance at 600 nm and the results shown are the mean of three independent experiments. C. Purification profile of Haliclona mucosa methanolic fraction. A preparative phenyl-hexyl HPLC column was used with a gradient starting at (47 H20: 53 ACN: 0.1 TFA) to (0 H20: 100 ACN: 0.1 TFA), flow rate: 10.0 mL/min, injection volume: 75 μl at 100 mg/mL. […] Purified compounds dissolved in DMSO were added (at 10 μg/mL) to the growth medium containing or not 10 μM dxr. The growth of yeasts was measured by absorbance at 600 nm.
S. cerevisiae expressing human Patched were grown in 10 mL of minimal medium (supplemented with 2% of glucose and amino acids cocktail without leucine) at 30° C. When the exponential phase was obtained (OD600=5-7), yeasts were precultured in the same medium to OD600=1-2. Yeasts were then diluted in rich medium containing 2% of glucose in 96-well plates. Methanolic or purified fractions (at 10 μg/mL final concentration) were added in all wells, and doxorubicin (10 μM final concentration) was added in half of the wells. Plates were incubated at 18° C. on a shaker at 1250 rpm (microtitre plate shaker SSL5 Stuart) and absorbance at 600 nm was recorded for about 72 hours.
Inventors cultured yeast S. cerevisiae expressing human Patched in their plasma membrane as previously described (Bidet et al., 2011, 2012) in 96 well plates. Methanolic fraction of Haliclona mucosa crude extracts was prepared, dissolved in DMSO at 10mg/mL and added at a final concentration of 10 μg/mL to the yeast culture medium supplemented or not with doxorubicin (dxr). As previously reported (Bidet et al., 2012), human Patched confers a resistance to growth inhibition by dxr, an […] used to treat a wide range of cancers (FIG. 2B).

| SMILES | inhibition of the resistance (growth) of hPtc-expressing yeast in presence of dxr |
| --- | --- |
| C/C(=C\Cc1cc(O)ccc1O)CCc1c(C)c(O)c(O)c(C=O)c1C [P2, Panicein C] | strongly inhibit |
| C/C(=C\Cc1cc(O)ccc1O)CCc1c(C)cc(O)c(C=O)c1C [P3, Panicein B3] | strongly inhibit |
| Cc1cc(O)c(C=O)c(C)c1CCC1(C)C=Cc2cc(O)ccc2O1 (stereo not shown) [P4, Panicein B2] | lighter |
| COc1cc(C)c(CC/C(C)=C/Cc2cc(O)ccc2O)c(C)c1C [P5, Panicein A hydroquinone] | strongly inhibit |
